The results in this text go back to patent publication US20230312605A1, “PYRROLO[2,1-F][1,2,4]TRIAZINES AND PREPARATION AND USES THEREOF” (BioSplice Therapeutics, Inc., priority 2021, published 2023).

The target in this assay is recombinant DYRK1A kinase (Homo sapiens (Human), UniProt Q13627). In words: DYRK1A kinase assay (Ser/Thr 18 peptide Z-lyte FRET assay). The class given is biochemical. The settings on record: recombinant DYRK1A 0.25 µg/mL, ATP 15 µM, Ser/Thr peptide 18 4 µM, one hour at room temperature; table head prints EC50, method says IC50. As to the method: Representative compounds were screened using the assay procedure for DYRK1A kinase activity as described below.
Each compound was dissolved in DMSO as a 10 mM stock and used to prepare compound source plates. Serial dilution (1:3, 11-point dose-response curves from 10 µM to 0.00016 µM) and compound transfer was performed using the ECHO 550 (Labcyte, Sunnyvale, CA) into 1536-well black-walled round bottom plates (Corning).
The DYRK1A kinase assay was run using the Ser/Thr 18 peptide Z-lyte assay kit according to manufacturer’s instructions (Life Technologies- a Division of Thermo-Fisher). This is a non-radioactive assay using fluorescence resonance energy transfer (FRET) between coumarin and fluorescein to detect kinase activity which is represented as a ratio of coumarin emission/fluorescein emission.
Briefly, recombinant DYRK1A kinase, ATP and Ser/Thr peptide 18 were prepared in 1X Kinase buffer to final concentrations of 0.25 µg/mL, 15 µM, and 4 µM respectively. The mixture was allowed to incubate with the representative compounds for one hour at room temperature. All reactions were performed in duplicate. Unphosphorylated (“0% Control”) and phosphorylated (“100% control”) forms of Ser/Thr 18 served as control reactions. Additionally, an 11-point dose-response curve of Staurosporine (1uM top) was run to serve as a positive compound control.
After incubation, Development Reagent A was diluted in Development Buffer then added to the reaction and allowed to further incubate for one hour at room temperature. The plate was read at Ex 400 Em 455 to detect the coumarin signal and Ex 400 Em 520 to measure the signal (EnVision Multilabel Plate Reader, PerkinElmer).
The Emission ratio (Em) was calculated as a ratio of the coumarin (C) emission signal (at 445 nm)/Fluorescein (F) emission signal (at 520 nm). The percent phosphorylation was then calculated using the following formula: [1 — ((Em ratio X F100%)—C100%)/ ((C0%—C100%) + (Em ratio X (F100% - F0%)))]. Dose-response curves were generated, and inhibitory concentration (IC50) values were calculated using non-linear regression curve fit in the Dotmatics’ Studies Software (Bishops Stortford, UK).

On to `FC(F)(F)O[C@H]1CC[C@@H](Nc2ncc3c(-c4cnc5ncccc5c4)ccn3n2)CC1` [Compound 1798, 5-(1,8-Naphthyridin-3-yl)-N-(cis-4-(trifluoromethoxy)cyclohexyl)pyrrolo [2,1-f][1,2,4]triazin-2-amine], for which the EC50 worked out at 4 nM.
As for `Cc1nc2ccc(-c3ccn4nc(NC5CC6(CCN(C)CC6)C5)ncc34)nc2n1CC(F)F` [Compound 1836, 5-(3-(2,2-Difluoroethyl)-2-methyl-3H-imidazo[4,5-b]pyridin-5-yl)-N-(7-methyl-7-azaspiro[3.5]nonan-2-yl)pyrrolo[2,1-f][1,2,4]triazin-2-amine], the figure is 3 nM; as for `Cc1nc2ccc(-c3ccn4nc(NC5CCC(F)(F)CC5)ncc34)nc2n1CC1CNC1` [Compound 1873, 5-(3-(Azetidin-3-ylmethyl)-2-methyl-3H-imidazo[4,5-b]pyridin-5-yl)-N-(4,4-difluorocyclohexyl)pyrrolo[2,1-f][1,2,4]triazin-2-amine], 131 nM; as for `Cc1nc2ccc(-c3ccn4nc(N[C@@H]5[C@@H]6COC[C@@H]65)ncc34)nc2n1CC(F)F` [Compound 1914, N-((lR,5S,6s)-3-Oxabicyclo[3.1.0]hexan-6-yl)-5-(3-(2,2-difluoroethyl)-2-methyl-3H-imidazo[4,5-b]pyridin-5-yl)pyrrolo[2,1-f][1,2,4]triazin-2-amine], 5 nM.
Then `C[C@]1(O)CC[C@@H](Nc2ncc3c(-c4ccc5ncccc5c4)ccn3n2)CC1` [Compound 1323, (1s,4s)-1-Methyl-4-((5-(quinolin-6-yl)pyrrolo[2,1-f][1,2,4]triazin-2-yl)amino)cyclohexan-1-ol], with 7 nM; and `Cc1nc2ccc(-c3ccn4nc(NC5CCN(C)CC5)ncc34)nc2n1CC(F)F` [Compound 1131, 5-(3-(2,2-Difluoroethyl)-2-methyl-3H-imidazo[4,5-b]pyridin-5-yl)-N-(1-methylpiperidin-4-yl)pyrrolo[2,1-f][1,2,4]triazin-2-amine], with 16 nM.
Regarding `CO[C@H]1C[C@H](Nc2ncc3c(-c4cnc5nccn5c4)ccn3n2)C1` [Compound 240, 5-(Imidazo[1,2-a]pyrimidin-6-yl)-N-(trans-3-methoxycyclobutyl)pyrrolo [2,1-f] [1,2,4]triazin-2-amine], the EC50 was determined as 14 nM.
Then `CC(=O)N1CCC(Nc2ncc3c(-c4ccc5nc(C)n(CC(F)F)c5n4)ccn3n2)CC1` [Compound 1857, 1-(4-((5-(3-(2,2-Difluoroethyl)-2-methyl-3H-imidazo[4,5-b]pyridin-5-yl)pyrrolo[2,1-f][1,2,4]triazin-2-yl)amino)piperidin-1-yl)ethan-1-one], with 3 nM; and `Cc1nc2ccc(-c3ccn4nc(N[C@H]5CC[C@@](C)(O)CC5)ncc34)nc2n1CC(C)(C)C#N` [Compound 1869, 3-(5-(2-((cis-4-Hydroxy-4-methylcyclohexyl)amino)pyrrolo[2,1-f][1,2,4]triazin-5-yl)-2-methyl-3H-imidazo[4,5-b]pyridin-3-yl)-2,2-dimethylpropanenitrile], with 16 nM; and `Cc1nc2ccc(-c3ccn4nc(N[C@H]5CC[C@@H](OC(F)F)CC5)ncc34)nc2n1CC(F)F` [Compound 1113, N-(cis-4-(Difluoromethoxy)cyclohexyl)-5-(3-(2,2-difluoroethyl)-2-methyl-3H-imidazo[4,5-b]pyridin-5-yl)pyrrolo[2,1-f][1,2,4]triazin-2-amine], with 7 nM.
Then “1-(4-((5-(1-(2,2-Difluoroethyl)-2-methyl-1H-imidazo[4,5-b]pyridin-6-yl)pyrrolo[2, 1-f] [1,2,4]triazin-2-yl)amino)piperidin- 1-yl)ethan-1 -one [Compound 1910]”, with 4 nM; and `Cc1nc2ccc(-c3ccn4nc(N[C@H]5C[C@H](N6CCOCC6)C5)ncc34)nc2n1CC(F)F` [Compound 1893, 5-(3-(2,2-Difluoroethyl)-2-methyl-3H-imidazo[4,5-b]pyridin-5-yl)-N-(trans-3-morpholinocyclobutyl)pyrrolo[2,1-f][1,2,4]triazin-2-amine], with 5 nM; and `c1cn2cc(-c3ccn4nc(NC5CCOCC5)ncc34)cnc2n1` [Compound 280, 5-(imidazo[1,2-a]pyrimidin-6-yl)-N-(tetrahydro-2H-pyran-4-yl)pyrrolo[2,1-f][1,2,4]triazin-2-amine], with 15 nM.
On to `CN1CC2(CC(Nc3ncc4c(-c5ccc6ncccc6c5)ccn4n3)C2)C1` [Compound 1348, N-(2-Methyl-2-azaspiro[3.3]heptan-6-yl)-5-(quinolin-6-yl)pyrrolo[2,1-f] [1,2,4]triazin-2-amine], for which the EC50 came out at 5 nM.
Then `C[C@]1(O)CC[C@@H](Nc2ncc3c(-c4cnc5ncccc5c4)ccn3n2)CC1` [Compound 1536, (1 s,4s)-4-((5-(1,8 -Naphthyridin-3-yl)pyrrolo [2,1-f] [1,2,4]triazin-2-yl)amino)-1-methylcyclohexan-1-ol], with 5 nM.
Then `Cc1nc2ccc(-c3ccn4nc(N[C@H]5CC[C@@H](CN6CCN(C)CC6)CC5)ncc34)nc2n1CC(F)F` [Compound 1841, 5-(3-(2,2-Difluoroethyl)-2-methyl-3H-imidazo[4,5-b]pyridin-5-yl)-N-(cis-4-((4-methylpiperazin-1-yl)methyl)cyclohexyl)pyrrolo[2,1-f][1,2,4]triazin-2-amine], with 6 nM.
Regarding `COCCO[C@H]1CC[C@@H](Nc2ncc3c(-c4cnc5nc(C)n(CC(F)F)c5c4)ccn3n2)CC1` [Compound 691, 5-(1-(2,2-Difluoroethyl)-2-methyl-1H-imidazo[4,5-b]pyridin-6-yl)-N-(cis-4-(2-methoxyethoxy)cyclohexyl)pyrrolo[2,1-f][1,2,4]triazin-2-amine], the concentration giving a half-maximal response (EC50) is 3 nM.
Then `CO[C@H]1CC[C@H](Nc2ncc3c(-c4cnc5nc(C)n(CC(F)F)c5c4)ccn3n2)CC1` [Compound 686, 5-(1-(2,2-Difluoroethyl)-2-methyl-1H-imidazo[4,5-b]pyridin-6-yl)-N-(trans-4-methoxycyclohexyl)pyrrolo[2,1-f][1,2,4]triazin-2-amine], with 5 nM; and `Cc1nc2ncc(-c3ccn4nc(NC5CCC(F)(F)CC5)ncc34)cc2n1CC(F)F` [Compound 682, N-(4,4-Difluorocyclohexyl)-5-(1-(2,2-difluoroethyl)-2-methyl-1H-imidazo[4,5-b]pyridin-6-yl)pyrrolo[2,1-f] [1,2,4]triazin-2-amine], with 4 nM.
Then `COCCO[C@H]1CC[C@@H](Nc2ncc3c(-c4cnc5ncccc5c4)ccn3n2)CC1` [Compound 1543, N-(cis-4-(2-Methoxyethoxy)cyclohexyl)-5-(1,8-naphthyridin-3-yl)pyrrolo [2,1-f][1,2,4]triazin-2-amine], with 2 nM; and `FC1(CNc2ncc3c(-c4cnc5nccn5c4)ccn3n2)CCC1` [Compound 227, N-((1-Fluorocyclobutyl)methyl)-5-(imidazo[1,2-a]pyrimidin-6-yl)pyrrolo [2,1-f][1,2,4]triazin-2-amine], with 4 nM.
As for `c1cn2cc(-c3ccn4nc(NCC5CCCO5)ncc34)ccc2n1` (centres unmarked) [Compound 21, 5-(Imidazo[1,2-a]pyridin-6-yl)-N-((tetrahydrofuran-2-yl)methyl)pyrrolo[2,1-f][1,2,4]triazin-2-amine], the figure is 61 nM; as for `Cc1nc2ncc(-c3ccn4nc(N[C@H]5CC[C@@](C)(O)CC5)ncc34)cc2n1CC(F)F` [Compound 684, cis-4-((5-(1-(2,2-Difluoroethyl)-2-methyl-1H-imidazo[4,5-b]pyridin-6-yl)pyrrolo[2,1-f][1,2,4]triazin-2-yl)amino)-1-methylcyclohexan-1-ol], 4 nM; as for `C[C@]1(O)CC[C@@H](Nc2ncc3c(-c4cnc5nccn5c4)ccn3n2)CC1` [Compound 258, (1s,4s)-4-((5-(Imidazo [1,2-a]pyrimidin-6-yl)pyrrolo[2,1-f] [1,2,4]triazin-2-yl)amino)-1-methylcyclohexan-1-ol], 10 nM.
`Cc1nc2ccc(-c3ccn4nc(NC5CCN(C(=O)C(C)C)CC5)ncc34)nc2n1CC(F)F` [Compound 1859, 1-(4-((5-(3-(2,2-Difluoroethyl)-2-methyl-3H-imidazo[4,5-b]pyridin-5-yl)pyrrolo[2,1-f][1,2,4]triazin-2-yl)amino)piperidin-1-yl)-2-methylpropan-1-one]: the EC50 amounted to 8 nM.
As for `Cc1nc2ccc(-c3ccn4nc(N[C@H]5CCN(CC(C)C)C[C@H]5F)ncc34)nc2n1CC(F)F` [Compound 1909, 5-(3-(2,2-difluoroethyl)-2-methyl-3H-imidazo[4,5-b]pyridin-5-yl)-N-((3R,4S)-3-fluoro-1-isobutylpiperidin-4-yl)pyrrolo[2,1-f][1,2,4]triazin-2-amine], the figure is 5 nM.

As usually defined, the EC50 is the concentration at which the effect is half-maximal.
